Source: patent US10189812B2, “Bi-benzyl isoquinoline derivative, preparation method and use thereof in hepatopathy treatment and prevention” (THE KEY LABORATORY OF CHEMISTRY FOR NATURAL PRODUCTS OF …, priority 2014, dated 2019)
Like-named read-outs stand apart in the source and are kept apart here.

Legend:
Type in all cases: cell-based
[1] = tested on: MHCC97L liver cancer cell strains; test: Tetrazolium salt reduction method (MTT) on human liver cancer cell strain MHCC97L
Protocol: 3. human liver cancer cell strains MHCC97L model discrimination
(§1) Tested methods: Tetrazolium salt reduction method (MTT)
(1) Inoculating cells: Inoculating cells: A uniform cell suspension was prepared with culture solution containing fetal calf serum (10%). The suspension was implanted into a 96-well cell culture disc by 1000-10000 cells/200 μL per well.
(§2) (2) Culturing cells: The cells were cultured for 3-5 days according to known methods in the art (culturing time depending on experiment objective and requirement).
(§3) (3) Colour response: The cells were cultured for 3-5 days, 20 μl of MTT solution (5 mg/mL, PBS <pH=7.4>) was added in each well, incubated for 4 h. Culture was terminated and the culture suspension was carefully sucked out. As for suspension cells, they need be centrifuged before suspension solution in wells was sucked out. 150 μL of DMSO was added in each well, vibrated for 10 min. The crystal was fully dissolved.
(§4) (4) Colorimetry: Light absorbance values in each well were measured by ELISA at 490 nm and the results were recorded. The cell growth curve was drawn with time as the abscissa and absorbance values as vertical coordinates.
Model principle: Dehydrogenase related to NADP exists in mitochondria of living cell. Yellow MTT is reduced to insoluble blue-purple Formanzan. Dehydrogenase is disappeared in dead cell and MTT can not be reduced. According to reduction extent, action effect of sample on tumor cell is defected.

BEL-7402 cell = test: Sulforhodamine B (SRB) growth inhibition of human liver cancer cell strain BEL-7402; settings: for inhibition at 10 µM: Homo sapiens, read-out: BEL-7402/ Inhibition (%)
Protocol: 1. human liver cancer cell strains BEL-7402 model discrimination
Tested methods: Sulforhodamine B (SRB)
According to growth rate of tumor cells, the adherent cells in logarithmic growth phase was implanted into a 96-well cell culture plate by 200 μL per well. Adhering for 24 h before dosing, each concentration was set with 3 holes. The corresponding concentration of saline as for control group and withering holes without cells. The tumor cells were cultured for 72 h under 5% CO2 at 37° C.
The culture plate was takene out, 50 uL of trichloro acetic acid TCA fixed cells which were diluted to 50% (m/v) were added to each well. The plate was kept for 1 h at 4° C. If suspension cells are cultured, 50 uL cold TCA (80%) was added to each well. Final concentration of TCA is 16%, standed for 5 min, kept in a refrigerator for 1 h at 4° C.
Stationary liquid was sucked out, washed by 5 times with distilled water, dried in the air.
After drying in the air, 100 μL of SRB solution was added in each well, kept for 10-30 min at the room temperature.
The supernatant was sucked out, washed by 5 times with acetic acid (1%), dried in the air.
150 μL Tris solution was added in each well, vibrated for 5 min on the tablet oscillator.
OD values were measured with ELISA at 515 nm, zeroed with blank control.
Growth inhibition ratio of tumor cells was calculated according to the following formula: Inhibition=[(OD515control hole−OD515dosing hole)/OD515control hole]×100%.
According to inhibition ratio of different concentration, IC50 was determined with Logit method. Above experiment was repeated 2-3 times to give average IC50 values as for final index.
Model principle: SRB is a kind of protein binding dye which can be binded with basic amino acid in biological macromolecules. OD values in specific wavelength range have linear relationship with cell number. According to OD values of binding substance, action effect of sample on tumor cell is defected.

[2] = tested on: PLC/PRF/5 liver cancer cell strains; test: Tetrazolium salt reduction method (MTT) on human liver cancer cell strain PLC/PRF/5
Protocol: 2. human liver cancer cell strains PLC/PRF/5 model discrimination
as §1
(1) Inoculating cells: A uniform cell suspension was prepared with culture solution containing fetal calf serum (10%). The suspension was implanted into a 96-well cell culture disc by 1000-10000 cells/200 μL per well.
as §2, §3, §4
Model principle: Dehydrogenase related to NADP exists in mitochondria of living cell. Yellow MIT is reduced to insoluble blue-purple Formanzan. Dehydrogenase is disappeared in dead cell and MIT can not be reduced. According to reduction extent, action effect of sample on tumor cell is defected.

[3] = MTT, cells cultured 3-5 days, read-out: MHCC97L IC50
[4] = 1.00 × 10^−5 mol/L, SRB, cells cultured 72 h
[5] = MTT, cells cultured 3-5 days, read-out: PLC/PRF/5 IC50
[6] = Bel-7402, 1.00 × 10^−5 mol/L, SRB, cells cultured 72 h
[7] = Homo sapiens, MHCC97L, read-out: MHCC97L IC50 (μM)
[8] = Homo sapiens, PLC-PRF-5, read-out: PLC/PRF/5 IC50 (μM)

Compound | IC50 [1, 3] [µM] | BEL-7402/ Inhibition (%) (BEL-7402 cell; [4]) | IC50 [2, 5] [µM] | inhibition at 10 µM (BEL-7402 cell; [6]) [%] | IC50 [1, 7] [µM] | inhibition at 10 µM (BEL-7402 cell; Bel-7402, 72 h) [%] | IC50 [2, 8] [µM]
COc1cc(NC(=O)c2cccs2)c2cc1Oc1ccc(cc1)C[C@H]1c3cc(c(OC)cc3CCN1C)Oc1c(OC)c(OC)cc3c1[C@H](C2)N(C)CC3 [Compound H-16] | 11.9 | 93.40 ± 4.70 | 9 | – | – | – | –
COc1cc(NC(=O)c2ccco2)c2cc1Oc1ccc(cc1)C[C@H]1c3cc(c(OC)cc3CCN1C)Oc1c(OC)c(OC)cc3c1[C@H](C2)N(C)CC3 [Compound H-15] | 2.1 | 87.23 ± 2.26 | 2.5 | – | – | – | –
COc1cc(NS(=O)(=O)c2ccc(Cl)cc2)c2cc1Oc1ccc(cc1)C[C@H]1c3cc(c(OC)cc3CCN1C)Oc1c(OC)c(OC)cc3c1[C@H](C2)N(C)CC3 [Compound H-24] | 8.2 | 90.01 ± 2.82 | 9.1 | – | – | – | –
COc1cccc2c1C(=O)c1c(O)c3c(c(O)c1C2=O)C[C@@](O)(C(=O)CO)C[C@@H]3O[C@H]1C[C@H](N)[C@H](O)[C@H](C)O1 [Doxorubicin, reference compound] | – | – | – | 57.8 ± 4.05 | – | – | –
COc1cc(NS(=O)(=O)c2ccc([N+](=O)[O-])cc2)c2cc1Oc1ccc(cc1)C[C@H]1c3cc(c(OC)cc3CCN1C)Oc1c(OC)c(OC)cc3c1[C@H](C2)N(C)CC3 [Compound H-19] | 9.4 | 92.70 ± 0.55 | 11.6 | – | – | – | –
C=CC(=O)Nc1cc(OC)c2cc1C[C@H]1c3c(cc(OC)c(OC)c3Oc3cc4c(cc3OC)CCN(C)[C@H]4Cc3ccc(cc3)O2)CCN1C [Compound H-10] | – | – | – | – | 10.4 | 87.74 ± 0.63 | 10.7
COc1cc(NC(=O)N2CCOCC2)c2cc1Oc1ccc(cc1)C[C@H]1c3cc(c(OC)cc3CCN1C)Oc1c(OC)c(OC)cc3c1[C@H](C2)N(C)CC3 [Compound H-26] | 10.8 | 89.60 ± 2.01 | 12.2 | – | – | – | –
COc1ccc2cc1Oc1ccc(cc1)C[C@H]1c3cc(c(OC)cc3CCN1C)Oc1c(O)c(OC)cc3c1[C@H](C2)N(C)CC3 [Tetrandrine B, reference compound] | – | – | – | – | 12.8 | 23.9 ± 3.65 | 16.9
COc1ccc2cc1Oc1ccc(cc1)C[C@H]1c3cc(c(OC)cc3CCN1C)Oc1c(OC)c(OC)cc3c1[C@H](C2)N(C)CC3 [Tetrandrine, 6,6′,7,12-tetramethoxy-2,2′-dimethyl berbamine, reference compound] | – | – | – | 53.9 ± 3.72 | – | – | –
COc1cc(NS(=O)(=O)c2ccc(C)cc2)c2cc1Oc1ccc(cc1)C[C@H]1c3cc(c(OC)cc3CCN1C)Oc1c(OC)c(OC)cc3c1[C@H](C2)N(C)CC3 [Compound H-20] | 12.5 | 93.91 ± 0.40 | 11 | – | – | – | –
